Laboratory results taken from ChEMBL document CHEMBL5523672, “Thiazol-4(5H)-one analogs as potent tyrosinase inhibitors: Synthesis, tyrosinase inhibition, antimelanogenic effect, antioxidant activity, and in silico docking simulation” (Bioorg Med Chem, 2024).
Active and inactive are the calls of the source. No cut-off for these calls is given here.

Tests used:
[1] = Antioxidant activity assessed as DPPH radical scavenging activity at 500 uM incubated for 30 mins under dark condition by microplate reader assay; type: functional
Mushroom tyrosinase [2] = molecular target: T1, Mushroom tyrosinase (Agaricus bisporus, UniProt O42713+Q00024+C7FF04+C7FF05); assay: Inhibition of mushroom tyrosinase using L-DOPA as substrate incubated for 30 mins by microplate reader assay; type: protein assay
[3] = Antioxidant activity assessed as ABTS radical scavenging activity at 100 uM measured at 1 min interval for 10 mins by microplate reader analysis; type: functional
Mushroom tyrosinase [4] = molecular target: T1, Mushroom tyrosinase; assay: Inhibition of mushroom tyrosinase using L-tyrosine as substrate incubated for 30 mins by microplate reader assay; type: protein assay
[5] = Antioxidant activity assessed as ROS scavenging activity at 40 uM incubated for 30 mins under dark condition in presence of SIN-1 by microplate reader assay; type: functional
[6] = molecular target: T2, Mushroom tyrosinase (Agaricus bisporus) (UniProt O42713+Q00024+C7FF04+C7FF05); assay: Potency index, ratio of kojic acid IC50 to test compound IC50 for inhibition of mushroom tyrosinase using L-Tyrosine as substrate; type: protein assay
[7] = molecular target: T2, Mushroom tyrosinase (Agaricus bisporus); assay: Mixed type inhibition of mushroom tyrosinase at 3 to 12 uM using varying levels of L-DOPA as substrate by Lineweaver-Burk plot analysis; type: protein assay; details: dose 3-12 µM
[8] = molecular target: T3, Tyrosinase (Mus musculus) (UniProt P11344); assay: Inhibition of tyrosinase activity in IBMX/[…] stimulated mouse B16-F10 cells preincubated for 1 hr followed by IBMX/[…] addition and measured after 72 hrs by microplate reader assay; type: cell-based; details: dose 5-20 µM, time 73.0 hrs
T3 sequence (whole entry): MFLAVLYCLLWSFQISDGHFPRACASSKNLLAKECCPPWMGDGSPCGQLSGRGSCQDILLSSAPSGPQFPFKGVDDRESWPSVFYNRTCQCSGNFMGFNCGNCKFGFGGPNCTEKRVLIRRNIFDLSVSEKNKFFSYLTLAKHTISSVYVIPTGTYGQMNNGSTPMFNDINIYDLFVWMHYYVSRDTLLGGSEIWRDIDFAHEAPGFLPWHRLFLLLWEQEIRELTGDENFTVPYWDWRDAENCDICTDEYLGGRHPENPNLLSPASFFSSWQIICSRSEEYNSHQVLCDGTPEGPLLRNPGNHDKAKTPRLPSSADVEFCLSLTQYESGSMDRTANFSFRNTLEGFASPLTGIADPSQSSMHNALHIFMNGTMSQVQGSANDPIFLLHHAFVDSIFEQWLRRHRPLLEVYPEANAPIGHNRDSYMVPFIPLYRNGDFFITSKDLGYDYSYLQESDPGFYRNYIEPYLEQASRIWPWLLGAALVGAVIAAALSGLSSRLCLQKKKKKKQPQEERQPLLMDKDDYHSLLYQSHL

B16-F10 [9] = assay: Antimelanogenic activity against IBMX/[…] stimulated mouse B16-F10 cells assessed as reduction in intracellular melanin production preincubated for 1 hr followed by IBMX/[…] addition and measured after 72 hrs by microplate reader assay; type: functional, cell-based; details: dose 5-20 µM, time 73.0 hrs
[10] = molecular target: T2, Mushroom tyrosinase (Agaricus bisporus); assay: Potency index, ratio of kojic acid IC50 to test compound IC50 for inhibition of mushroom tyrosinase using L-Dopa as substrate; type: protein assay
B16-F10 [11] = assay: Cytotoxicity against mouse B16-F10 cells upto 20 uM incubated for 72 hrs by EZ-Cytox method; type: toxicity, cell-based; details: b16-f10, 72 h
Mushroom tyrosinase [12] = molecular target: T1, Mushroom tyrosinase; assay: Inhibition of mushroom tyrosinase using varying levels of L-DOPA as substrate by Dixon plot analysis; type: protein assay
[13] = molecular target: T2, Mushroom tyrosinase (Agaricus bisporus); assay: Competitive inhibition of mushroom tyrosinase assessed as increase in Km with constant Vmax at 25 to 100 uM using varying levels of L-DOPA as substrate by Lineweaver-Burk plot analysis; type: protein assay; details: dose 25-100 µM

Row | SMILES | IC50 (Mushroom tyrosinase [2]) [µM] | IC50 (Mushroom tyrosinase [4]) [µM] | Ratio IC50 [6] | inhibition [7] | inhibition [8] | Ratio IC50 [10] | Ki (Mushroom tyrosinase [12]) [µM] | inhibition [13] | Activity [1] | Activity [3] | Activity [5] | Activity (B16-F10 [9]) | Activity (B16-F10 [11])
1 | CCOc1cc(/C=C2\SC(NCc3ccc(OC)cc3)=NC2=O)ccc1O | 98.5 | 174.2 |  |  |  |  |  |  | > 80% | 41% | inactive |  | 
2 | COc1ccc(CNC2=NC(=O)/C(=C/c3ccc(O)cc3O)S2)cc1 | 0.4 | 2.1 | 26 | Active | Dose-Dependent Effect | 19 | 1.1 |  | > 80% | 90% | inactive | Dose-Dependent Effect | Non-Toxic
3 | O=C1O[C@H]([C@@H](O)CO)C(O)=C1O |  |  |  |  |  |  |  |  | 96% |  |  |  | 
4 | COc1ccc(CNC2=NC(=O)/C(=C/c3ccc(O)cc3)S2)cc1 | 29.2 | > 200 |  |  |  |  |  |  | inactive |  |  |  | 
5 | COc1ccc(CNC2=NC(=O)/C(=C/c3ccc(O)c(O)c3)S2)cc1 | 105.1 | > 200 |  |  |  |  |  |  | 100% | 75% | Active |  | 
6 | COc1ccc(CNC2=NC(=O)/C(=C/c3cc(OC)c(OC)c(OC)c3)S2)cc1 | > 200 | > 200 |  |  |  |  |  |  | inactive | inactive | Active |  | 
7 | COc1ccc(CNC2=NC(=O)/C(=C/c3ccc(F)c(F)c3)S2)cc1 | 79.5 | > 200 |  |  |  |  |  |  | inactive | inactive | inactive |  | 
8 | Cc1c(C)c2c(c(C)c1O)CCC(C)(C(=O)O)O2 (stereo unspecified) |  |  |  |  |  |  |  |  |  | 99.9% | Active |  | 
9 | COc1ccc(CNC2=NC(=O)/C(=C/c3cc(C(C)(C)C)c(O)c(C(C)(C)C)c3)S2)cc1 | 100.9 | > 200 |  |  |  |  |  |  | > 80% | 41% | inactive |  | 

Continued, in another order:

Row | IC50 (Mushroom tyrosinase [2]) [µM] | IC50 (Mushroom tyrosinase [4]) [µM] | Ratio IC50 [6] | inhibition [7] | inhibition [8] | Ratio IC50 [10] | Ki (Mushroom tyrosinase [12]) [µM] | inhibition [13] | SMILES | Activity [1] | Activity [3] | Activity [5] | Activity (B16-F10 [9]) | Activity (B16-F10 [11])
10 | 146.4 | > 200 |  |  |  |  |  |  | COc1ccc(CNC2=NC(=O)/C(=C/c3ccc(OC)cc3OC)S2)cc1 | inactive | inactive | Active |  | 
11 | 179.2 | > 200 |  |  |  |  |  |  | COc1ccc(CNC2=NC(=O)/C(=C/c3ccc(F)cc3F)S2)cc1 | inactive | inactive | inactive |  | 
12 | 13 | 107.9 |  |  | Dose-Dependent Effect |  | 65.83 | Active | COc1ccc(CNC2=NC(=O)/C(=C/c3ccc(OC)c(O)c3)S2)cc1 |  | 41% | inactive | Dose-Dependent Effect | Non-Toxic
13 | > 200 | > 200 |  |  |  |  |  |  | COc1ccc(/C=C2\SC(NCc3ccc(OC)cc3)=NC2=O)cc1 | inactive | inactive | Active |  | 
14 | > 200 | > 200 |  |  |  |  |  |  | COc1ccc(CNC2=NC(=O)/C(=C/c3cc(OC)c(O)c(OC)c3)S2)cc1 |  | 41% | inactive |  | 
15 | 136 | > 200 |  |  |  |  |  |  | COc1ccc(CNC2=NC(=O)/C(=C/c3ccc(OC)c(OC)c3)S2)cc1 | inactive | inactive | Active |  | 
16 | 78.1 | 29.4 |  |  |  |  |  |  | COc1ccc(CNC2=NC(=O)/C(=C/c3ccc(O)c(OC)c3)S2)cc1 | 93% | 41% | inactive |  | 
